In brackets after ≈: the same amount, converted by molar mass.
Key:
[1] = tested on: vancomycin-susceptible enterococci; assay: broth micro-dilution, mean geometric MIC; type: cell-based, Enterococcus faecium and Enterococcus faecalis; conditions: enterococci, 24-hour incubation
Entercoccus faecium 180 = assay: broth micro-dilution MIC; type: cell-based; conditions: Entercoccus faecium 180
Experimental: (§1) The formula I compounds have in vitro and in vivo activity against Gram-positive pathogenic bacteria. The MIC's were determined using a standard broth micro-dilution assay.

[2] = tested on: Staphylococcus haemolyticus 415; assay: broth micro-dilution MIC; type: cell-based
Experimental: as §1

[3] = tested on: Staphylococcus haemolyticus 105; assay: broth micro-dilution MIC; type: cell-based
Experimental: as §1

[4] = tested on: Enterococcus gallinarum 245; assay: broth micro-dilution MIC; type: cell-based; conditions: Enterococcus gallinarum 245
Experimental: as §1

[5] = tested on: Staphylococcus epidermidis 270; assay: broth micro-dilution MIC; type: cell-based
Experimental: as §1

[6] = tested on: Streptococcus pneumoniae P1; assay: broth micro-dilution MIC; type: cell-based
Experimental: as §1

[7] = tested on: Staphylococcus aureus 447; assay: broth micro-dilution MIC; type: cell-based
Experimental: (§2) The MIC's were determined using a standard broth micro-dilution assay.

[8] = tested on: Streptococcus pyogenes C203; assay: broth micro-dilution MIC; type: cell-based
Experimental: as §2

[9] = tested on: Staphylococcus aureus 489; assay: broth micro-dilution MIC; type: cell-based
Experimental: as §2

[10] = tested on: Staphylococcus aureus 446; assay: broth micro-dilution MIC; type: cell-based
Experimental: as §2

[11] = tested on: Entercoccus faecium 180-1; assay: broth micro-dilution MIC; type: cell-based
Experimental: as §2

Entercoccus faecium 276 = assay: broth micro-dilution MIC; type: cell-based
Experimental: as §2

[12] = tested on: Staphylococcus aureus X400; assay: broth micro-dilution MIC; type: cell-based
Experimental: as §2

[13] = tested on: Staphylococcus aureus X778; assay: broth micro-dilution MIC; type: cell-based
Experimental: as §2

[14] = tested on: vancomycin-resistant enterococci; assay: broth micro-dilution, mean geometric MIC; type: cell-based, Enterococcus faecium and Enterococcus faecalis; conditions: enterococci, 24-hour incubation
[15] = tested on: Staphylococcus aureus S13E; type: cell-based
Experimental: as §2

[16] = tested on: Staphylococcus aureus SA1199B; type: cell-based
Experimental: as §2

Entercoccus faecium 2041 = assay: broth micro-dilution MIC; type: cell-based; conditions: Entercoccus faecium 2041
Experimental: as §1

[17] = tested on: Staphylococcus aureus SA1199A; assay: broth micro-dilution MIC; type: cell-based
Experimental: as §2

[18] = tested on: Staphylococcus aureus SA1199; assay: broth micro-dilution MIC; type: cell-based
Experimental: as §2

Row | SMILES | mean geometric MIC, Vancomycin Sensitive Strains [1] [µg/mL] | MIC (Entercoccus faecium 180) [µg/mL] | MIC [2] [µg/mL] | MIC [3] [µg/mL] | MIC [4] [µg/mL] | MIC [5] [µg/mL] | MIC [6] [µg/mL] | MIC [7] [µg/mL] | MIC [8] [µg/mL] | MIC [9] [µg/mL] | MIC [10] [µg/mL] | MIC [11] [µg/mL] | MIC (Entercoccus faecium 276) [µg/mL] | MIC [12] [µg/mL] | MIC [13] [µg/mL] | mean geometric MIC, Vancomycin Resistant Strains [14] [µg/mL] | MIC [15] [µg/mL] | MIC [16] [µg/mL] | MIC (Entercoccus faecium 2041) [µg/mL] | MIC [17] [µg/mL] | other results
1 | CNC(CC(C)C)C(=O)NC1C(=O)NC(CC(N)=O)C(=O)NC2C(=O)NC3C(=O)NC(C(=O)NC(C(=O)O)c4cc(O)cc(O)c4-c4cc3ccc4O)C(OC3CC(C)(N)C(O)C(C)O3)c3ccc(c(Cl)c3)Oc3cc2cc(c3OC2OC(CO)C(O)C(O)C2OC2CC(C)(NCc3ccc(Cl)c(C(=O)c4ccccc4)c3Cl)C(O)C(C)O2)Oc2ccc(cc2Cl)C1O (stereo not shown) [Compound 133] | 0.13 | 1 (≈ 0.539 µM) | 2 (≈ 1.08 µM) | 2 (≈ 1.08 µM) | 2 (≈ 1.08 µM) | 1 (≈ 0.539 µM) | ≤ 0.06 | 1 (≈ 0.539 µM) | ≤ 0.06 | 1 (≈ 0.539 µM) | 2 (≈ 1.08 µM) | ≤ 0.06 | 1 (≈ 0.539 µM) | 0.5 (≈ 0.269 µM) | 2 (≈ 1.08 µM) | 4.0 | 1 (≈ 0.539 µM) | 2 (≈ 1.08 µM) |  |  | 
2 | CNC(CC(C)C)C(=O)NC1C(=O)NC(CC(N)=O)C(=O)NC2C(=O)NC3C(=O)NC(C(=O)NC(C(=O)O)c4cc(O)cc(O)c4-c4cc3ccc4O)C(OC3CC(C)(N)C(O)C(C)O3)c3ccc(c(Cl)c3)Oc3cc2cc(c3OC2OC(CO)C(O)C(O)C2OC2CC(C)(NCc3ccc(Nc4ccccc4)cc3)C(O)C(C)O2)Oc2ccc(cc2Cl)C1O (stereo not shown) [Compound 160] | 0.22 | 0.5 (≈ 0.282 µM) | 8 (≈ 4.51 µM) | 8 (≈ 4.51 µM) | 8 (≈ 4.51 µM) | 1 (≈ 0.564 µM) | ≤ 0.06 | 1 (≈ 0.564 µM) | ≤ 0.06 | 0.21 (≈ 0.118 µM) | 2 (≈ 1.13 µM) | ≤ 0.06 | 2 (≈ 1.13 µM) | 4 (≈ 2.26 µM) | 4 (≈ 2.26 µM) | 9.5 | 1 (≈ 0.564 µM) | ≤ 0.06 | ≤ 0.06 |  | 
3 | CNC(CC(C)C)C(=O)NC1C(=O)NC(CC(N)=O)C(=O)NC2C(=O)NC3C(=O)NC(C(=O)NC(C(=O)O)c4cc(O)cc(O)c4-c4cc3ccc4O)C(OC3CC(C)(N)C(O)C(C)O3)c3ccc(c(Cl)c3)Oc3cc2cc(c3OC2OC(CO)C(O)C(O)C2OC2CC(C)(NCc3cccc(OC(=O)c4ccccc4)c3)C(O)C(C)O2)Oc2ccc(cc2Cl)C1O (stereo not shown) [Compound 162] | 0.12 | ≤ 0.06 | 2 (≈ 1.11 µM) |  | 2 (≈ 1.11 µM) | ≤ 0.06 | ≤ 0.06 | ≤ 0.06 | ≤ 0.06 |  | 0.5 (≈ 0.277 µM) | ≤ 0.06 | ≤ 0.06 | ≤ 0.06 | ≤ 0.06 | 4.8 | ≤ 0.06 | ≤ 0.06 | ≤ 0.06 | ≤ 0.06 | MIC [18]: ≤ 0.06 µg/mL
4 | CNC(CC(C)C)C(=O)NC1C(=O)NC(CC(N)=O)C(=O)NC2C(=O)NC3C(=O)NC(C(=O)NC(C(=O)O)c4cc(O)cc(O)c4-c4cc3ccc4O)C(OC3CC(C)(N)C(O)C(C)O3)c3ccc(c(Cl)c3)Oc3cc2cc(c3OC2OC(CO)C(O)C(O)C2OC2CC(C)(NCC3=CCC(C(C)C)CC3)C(O)C(C)O2)Oc2ccc(cc2Cl)C1O (stereo not shown) [Compound 171] | 0.22 | 1 (≈ 0.578 µM) | 8 (≈ 4.63 µM) | 4 (≈ 2.31 µM) | 8 (≈ 4.63 µM) | 1 (≈ 0.578 µM) | ≤ 0.06 | 1 (≈ 0.578 µM) | ≤ 0.06 | 0.5 (≈ 0.289 µM) | 1 (≈ 0.578 µM) | ≤ 0.06 | 0.125 (≈ 0.0723 µM) | ≤ 0.06 | ≤ 0.06 | 9.5 | ≤ 0.06 |  | ≤ 0.06 | ≤ 0.06 | 
5 | CNC(CC(C)C)C(=O)NC1C(=O)NC(CC(N)=O)C(=O)NC2C(=O)NC3C(=O)NC(C(=O)NC(C(=O)O)c4cc(O)cc(O)c4-c4cc3ccc4O)C(OC3CC(C)(N)C(O)C(C)O3)c3ccc(c(Cl)c3)Oc3cc2cc(c3OC2OC(CO)C(O)C(O)C2OC2CC(C)(NCC3CCC(COCc4ccccc4)CC3)C(O)C(C)O2)Oc2ccc(cc2Cl)C1O (stereo not shown) [Compound 239] | 0.095 | ≤ 0.06 | 1 (≈ 0.553 µM) | 1 (≈ 0.553 µM) | 1 (≈ 0.553 µM) |  | ≤ 0.06 | 0.5 (≈ 0.276 µM) |  | 0.5 (≈ 0.276 µM) | 1 (≈ 0.553 µM) | ≤ 0.06 |  |  |  | 2.8 | 0.5 (≈ 0.276 µM) | 0.5 (≈ 0.276 µM) | ≤ 0.06 | ≤ 0.06 | MIC [18]: 0.5 µg/mL (≈ 0.276 µM)
